{"source": "patent US20240197655A1", "about": "(REPUBLIC OF KOREA(MASAN NATIONAL TUBERCULOSIS HOSPITAL), priority 2021, published 2024)", "key": {"[1]": {"test_system": "clarithromycin-resistant M. abscessus mutants (M. abscessus CLR-R)", "experiment": "REMA dose-response against clarithromycin-resistant mutants", "format": "cell-based, Mycobacterium abscessus", "conditions": "mutant produced in presence of 100 mg/L CLR, FIG. 3", "protocol": "(§1) Experiments were performed in triplicates.\nIt was also tested to determine whether CC inhibits the growth of the drug-resistant strains produced in the present invention in the presence of high concentration (100 mg/L) CLR used for therapy against M. abscessus. […] Accordingly, CC is considered as an active drug for the treatment of CLR-resistant M. abscessus."}, "[2]": {"test_system": "M. abscessus (lux) in THP-1 cells", "format": "cell-based, Mycobacterium abscessus", "conditions": "THP-1 infection, data not shown", "protocol": "(§2) THP-1 cells were treated with phorbol 12-myristate 13-acetate (PMA; Sigma-Aldrich, USA) at a final concentration of 50 nM for 40 hours. Infection with M. abscessus containing pTEC15 green fluorescence or luciferase was performed at 37° C. in the presence of 5% CO2 at a multiplicity of […] (MOI) of 2:1 for 3 hours. After extensive washing with PBS, the cells were incubated in a culture medium containing […] of gentamicin for 30 minutes and washed again with PBS. […] Macrophages were stained with SYTO 60 (Invitrogen, USA) dye at a final concentration of 5 μM at 37° C. in a 5% CO2 atmosphere for 30 minutes. On the day 4, luminescence was measured with a Synergy H1 microplate reader (Bio-Tek, USA). The fluorescence microscopic images of living cells were captured with a Lionheart™ FX automated microscope (BIO-Tek, USA). The Gen5™ 3.05 software object feature was available for identification of the cells in the imaging field.\n(§3) The use of a double read assay results in dose-response curves for both inhibition for M. abscessus and cytotoxicity to THP-1 cells as determined in a same experiment. […] The cytotoxicity was determined using a SYTO 60 probe."}, "[3]": {"test_system": "M. abscessus (ATCC 19997)", "conditions": "known value used for selecting resistant mutants; cited from earlier work"}, "[4]": {"test_system": "M. abscessus in biofilm culture", "experiment": "Biofilm assay (Calgary Biofilm Device, MBEC Assay)", "format": "cell-based, Mycobacterium abscessus", "protocol": "The first biofilm assay system was the Calgary Biofilm Device used by Bardouniotis et al. to evaluate the bactericidal activity or minimum biofilm eradication concentration (MBEC) of a biocidal active substance against Mycobacterium phlei. In the present invention, MBEC Assay® (Innovotech, Edmonton, Canada) for MBEC measurement was used. Biofilm formation was performed as follows. […] Then, the 96-well microliter plate was covered with a 96-peg lid and incubated for 4 days. After washing, the bacteria remaining on the biofilms were removed from the wells by ultrasonication in the medium. Finally, after incubation, the adherent bacteria remaining on the biofilms with or without antibiotics were quantified with resazurin."}, "[5]": {"test_system": "M. abscessus (ATCC 19997) under anaerobic conditions", "experiment": "Resazurin dose-response under anaerobic non-replicating culture", "format": "cell-based, Mycobacterium abscessus", "protocol": "In order to determine the antibiotic ability against M. abscessus (ATCC 19997) under anaerobic conditions, a bacterial culture (5×10^6 bacteria/mL) was inoculated into 5 mL of 7H9 broth (BD, 271310) supplemented with 10% OADC. The bacterial culture was placed in an anaerobic jar (BD BBLIM GasPAK™ Jar; Franklin Lakes, NJ, USA). Here, a BD BBLIM GasPAK™ anaerobic indicator (methylene blue for monitoring oxygen depletion) was used. The bacteria were cultured in cation-adjusted Mueller-Hinton broth (MH; Sigma-Aldrich, 90922) for drug susceptibility testing.\nas §1\nA comparison was made between the growth rates under aerobic, anaerobic and restored aerobic conditions in a same culture medium."}, "biofilm-forming microbes": {"test_system": "biofilm-forming microbes", "conditions": "Munoz-Egea et al.; cited from earlier work"}, "[6]": {"test_system": "M. abscessus (ATCC 19997)", "experiment": "Resazurin (REMA) broth microdilution dose-response, aerobic culture", "format": "cell-based, Mycobacterium abscessus", "method": "Three strains of M. abscessus (ATCC 19997), M. avium (ATCC 25291) and M. intracellulare (ATCC 13950) were cultured at 37° C. in Middlebrook 7H9 broth (BD, 27130) supplemented with 10% OADC (BD, 212240), 0.5% glycerol and 0.05% Tween-80.\nThe minimum inhibitory concentration (MIC) was determined according to the guideline by the CLSI (Clinical & Laboratory Standards Institute). The CLSI broth microdilution method recommended by MH was used with an inoculum having an OD of 0.001/ml in the exponential phase of growth.\nThen, incubation was carried out at 37° C. for 3 hours, followed by adding 40 mL of 0.025% resazurin. After incubation overnight, the fluorescence of resorufin (metabolite resazurin) was measured with a Synergy H1 Hybrid Multi-Mode Reader (Bio-Tek, VT, USA). IC50 values were calculated from raw fluorescence data using Prism 5.0 software (GraphPad Inc., La Jolla, CA, USA). Experiments were performed in triplicates."}, "THP-1 cells [7]": {"test_system": "THP-1 cells", "protocol": "as §2, §3"}, "[8]": {"test_system": "human colonic epithelial cells (HCT-8)", "experiment": "WST-8 cell viability and LDH cytotoxicity assay", "format": "cell-based", "conditions": "HCT-8, 24 hours, FIG. 7", "protocol": "(§4) THP-1 (ATCC TIB-202) and HCT-8 (ATCC CCL-244) cells were measured in regards to cell viability and cytotoxicity of CC using a WST-8 cell viability assay kit (MediFab, S. Korea) and a CytoTox 96® non-radioactive cytotoxicity assay kit (Promega, Madison, WI, USA), respectively. Differentiated THP-1 cells (1.0×10^5 cells/well) and HCT-8 cells (2.0×10^4 cells/well) were placed in 96-well plates and incubated at 37° C. for 24 hours. Here, CC was added to the cells at different concentrations. For cell viability assay, 10 μL of the reagent (10% medium volume) was added to each well, followed by incubation for 4 hours. The resulting color was measured at 450 nm. For LDH cytotoxicity assay, 50 μL of a reagent for LDH detection was added to each well, and incubation was performed in the dark for 30 minutes. The resulting color was measured at 490 nm. In this regard, the cells treated with 1% Triton™ X-100 were used as a positive control, and those treated with DMSO were all tested negative in both experiments."}, "THP-1 cells [9]": {"test_system": "THP-1 cells", "experiment": "WST-8 cell viability and LDH cytotoxicity assay", "format": "cell-based, human", "conditions": "THP-1, 24 hours, FIG. 7", "protocol": "as §4"}}, "note": "Where a name gives a salt, the structure may show the parent alone.", "data": [{"smiles": "CC[C@H]1OC(=O)[C@H](C)[C@@H](O[C@H]2C[C@@](C)(OC)[C@@H](O)[C@H](C)O2)[C@H](C)[C@@H](O[C@@H]2O[C@H](C)C[C@H](N(C)C)[C@H]2O)[C@](C)(OC)C[C@@H](C)C(=O)[C@H](C)[C@@H](O)[C@]1(C)O", "note": "[CLR, clarithromycin]", "values": [{"measurement": "resistance of produced mutant to CLR", "setting": "[1]", "value": "high drug resistance"}, {"measurement": "effect on intracellular bacterial replication", "setting": "[2]", "value": "prevented bacterial replication"}, {"measurement": "known MIC value", "setting": "[3]", "value": 0.1, "unit": "µg/mL"}, {"measurement": "MBEC relative to general MIC", "setting": "[4]; MBEC vs MIC", "value": "2,000 fold"}, {"measurement": "IC50", "setting": "[4]; Mycobacteroides abscessus, biofilm culture, FIG. 4", "value": "> 100", "unit": "µg/mL"}, {"measurement": "MBEC for M. abscessus", "setting": "[4]; biofilm", "value": "above 100 μg"}, {"measurement": "IC50", "setting": "[5]; Mycobacteroides abscessus, ATCC19997, anaerobic culture conditions, FIG. 4", "value": 0.0778, "unit": "µg/mL"}, {"measurement": "shift of the IC50 value, anaerobic versus aerobic", "setting": "[5]; anaerobic vs aerobic culture", "value": 2, "unit": "fold"}, {"measurement": "MBEC relative to MIC", "setting": "biofilm-forming microbes", "value": "100,000 fold"}, {"measurement": "general MIC", "setting": "[6]", "value": 0.46, "unit": "µg"}, {"measurement": "IC50", "setting": "[6]; Mycobacteroides abscessus, ATCC19997, aerobic culture conditions, FIG. 4", "value": 0.046, "unit": "µg/mL"}]}, {"smiles": "CCN(CC)CCOc1ccc(C(=C(Cl)c2ccccc2)c2ccccc2)cc1", "note": "[CC, clomiphene citrate]", "values": [{"measurement": "cytotoxicity to THP-1 cells", "setting": "THP-1 cells [7]", "value": "without cytotoxicity"}, {"measurement": "effect on cell viability", "setting": "[8]", "value": "no harm on the viability"}, {"measurement": "effect on cell viability", "setting": "THP-1 cells [9]", "value": "no harm on the viability"}]}]}
